Results from patent US12485117B2, “Compositions and methods for activating signaling through the CB1 cannabinoid receptor for treating and preventing diseases and disorders characterized by abnormal cellular accumulation of sphingolipids such as sphingomyelin” (Wylder Nation Foundation, priority 2018, dated 2025).

Assays:
ASMko cultured neurons = experiment: MAP2 immunofluorescence of dendrites in ASMko cultured neurons; assay type: cell-based, mouse; conditions: 50 μM for 1 hour
wt and ASMko mice [1] = experiment: Y maze test (hippocampal dependent memory); assay type: in vivo, mouse; conditions: 0.3 mg/kg every three days
Description: FIGS. 13A-13C show the effect of PF-04457845 treatment on various behavioral functions. […] (n=14; **p<0.01, *p<0.05).
(§1) Treatment started at 7 weeks of age and continued for 8 weeks. PF-04457845 was dissolved in 0.9% NaCl and delivered through oral gavage at a dose of 0.3 mg/kg every three days. We chose this dose based on the studies published by Ahn et al., (J Pharm Exp Ther 2011). Control groups received same volume of 0.9% NaCl without PF-04457845.
Hippocampal dependent memory was monitored by the Y maze test (FIG. 13A). During the first training trial (8 min) the mice were only allowed to explore two arms (the initial arm and one other arm), maintaining the third arm (novel arm) closed. After 1 hour, the mice were placed back in the same starting arm with free access to all three arms for 5 min.
The time spent in the novel arm was counted and expressed as a percentage of the total exploration time. Non-treated ASMko mice spent less time in the novel arm than wt mice, indicative of impaired memory.

wt and ASMko mice [2] = experiment: Survival analysis (life span); assay type: in vivo, mouse
Description: as §1
Behavioral analyses were performed in the last 2 weeks of treatment while still administering the drug. Then, half of the mice were sacrificed for biochemical and histological analysis and the other half continued receiving the treatment to monitor life span.
Seven mice per condition remained under treatment to monitor life span. While the mean survival of non-treated ASMko mice was 29 weeks, PF-04457845 treatment extended ASMko mice mean life span to 38 weeks (FIG. 19).

wt or ASMko mice = experiment: Acute toxicity: in-life observations for 48 hours after a single oral dose; assay type: in vivo, mouse; conditions: 48 hours after single oral dose, any of the doses (0.1, 1, 5 mg/kg)
Description: To that end, a toxicity assessment of oral PF-04457845 treatment in AMSko mice was performed to determine the toxicity in liver and brain of single doses of PF-04457845 administered by oral gavage at different concentration.
(§2) We divided wt and ASMko mice of 4.5 months of age in six experimental groups: ASMko control (n=3), ASMko low dose (n=3), ASMko intermediate dose (n=3), ASMko high dose (n=3), wt control (n=3), wt high dose (n=3). PF-04457845, provided as powder, was dissolved in 0.9% NaCl and administered to mice through oral gavage. Vehicle groups received same volume of 0.9% NaCl.
(§3) Doses have been calculated taking into account that used in the study conducted in healthy humans (Li et al., Br J Clin Pharmacol 2011, 73:706-716). […] Estimating an average weight of 60 kg for an adult human the daily dose equals to 0.0083 mg/kg. This dose was very similar to that used in our first 8 week-long treatment with PF-04457845 in ASMko mice, which according to the formulas to calculate equivalence between humans and mice (Nair and Jacob J Basic Clin Pharma 2016, 7:27-31) corresponded to a daily HED dose of 0.0072 mg/kg. For this toxicity study we agreed to take into account the human dose: 0.0083 mg/kg. Formula conversion to mouse dose: HED (mg/kg)=Mouse dose (mg/kg)×mouseKm/Human Km).

wt and ASMko mice [3] = experiment: Acute toxicity: sphingomyelin levels by enzymatic assay in brain areas and liver; assay type: in vivo, mouse; conditions: 48 hours
Description: as §2, §3
Sphingomyelin levels were quantified by enzymatic assay in extracts from different brain areas (hippocampus, cerebellum and cortex) and from liver of wt and ASMko mice treated with PF-04457845 at 0.1 mg/kg, 1 mg/kg and 5 mg/kg or with vehicle (FIG. 26). The results confirmed the remarkable increase of sphingomyelin levels in the vehicle-treated ASMko mice with respect to wt at this advanced stage of the disease (168% in hippocampus, 170% in cerebellum, 139% in cortex and 216% in liver with respect to wt values considered 100%).

wt and ASMko mice [4] = experiment: Acute toxicity: H&E staining of brain and liver; assay type: in vivo, mouse; conditions: any of the doses
Description: FIGS. 27A-27C show H&E staining in wt and ASMko mice treated or not treated with PF-04457845.
as §2
Brain and liver tissue was stained with H&E to evaluate histopathological features.
In the liver foam cells showing white vacuoles indicative of lipid accumulation were evident in vehicle treated ASMko mice compared to wt (FIG. 28).

microglia = experiment: Acute toxicity: brain inflammation by iba-1 immunofluorescence (microglia numbers); assay type: in vivo, mouse; conditions: ASMko mice
Text: FIGS. 29A-29C show representative images of immunofluorescence against ibal, a marker for microglia, which is used as a readout for inflammation. FIGS. 29A-29C show ibal expression in hippocampus (FIG. 29A), cerebellum (FIG. 29B), and cortex (FIG. 29C), respectively, of wt and ASMko mice treated with PF-04457845 at the indicated doses or with vehicle.
as §2
Inflammation was analyzed in different brain areas (hippocampus, cerebellum and cortex) by immunofluorescence against the microglia marker iba-1. Under inflammatory conditions the number of microglia increases. Confirming high inflammation in the brain of vehicle-treated ASMko mice, microglia numbers increased compared to wt mice in all areas (FIGS. 29A-29C).

macrophages = experiment: Acute toxicity: liver inflammation by F4/80 immunofluorescence (macrophage cell area); assay type: in vivo, mouse; conditions: ASMko mice
Description: as §2
Inflammation was analyzed in the liver by immunofluorescence against the macrophage marker F4/80. Under inflammatory conditions macrophages acquire an amoeboid shape indicative of maximal activation.

[5] = ASMko mice, single dose of 5 mg/kg
[6] = wt mice, single dose of 5 mg/kg

O=C(Nc1cccnn1)N1CCC(=Cc2cccc(Oc3ccc(C(F)(F)F)cn3)c2)CC1 [PF-04457845]
morphology, length, appearance of dendrites (MAP2) (ASMko cultured neurons): did not alter the morphology, length or homogeneous appearance of dendrites
time in the novel arm of Y maze (memory) (wt and ASMko mice [1]; ASMko mice): restored memory function
time in the novel arm of Y maze, treated versus non-treated (wt and ASMko mice [1]; wt mice): No differences
lifespan extended (wt and ASMko mice [2]; ASMko mice): 31%
mean life span (wt and ASMko mice [2]; ASMko mice, continued treatment 0.3 mg/kg every three days): 38 weeks
survival (wt and ASMko mice [2]; wildtype mice): did not affect
adverse effects (abnormal behavior, weight loss, motor anomalies, skin alterations) (wt or ASMko mice): No evident adverse effects
sphingomyelin levels in hippocampus (wt and ASMko mice [3]; [5]): high variability
sphingomyelin levels reduced in cerebellum (wt and ASMko mice [3]; [5]): 21%
sphingomyelin levels reduced in cortex (wt and ASMko mice [3]; [5]): 8%
sphingomyelin levels reduced in liver (wt and ASMko mice [3]; [5]): 6%
reduction of sphingomyelin in brain areas and liver (wt and ASMko mice [3]; single dose of 0.1 mg/kg): No statistically significant reduction
reduction of sphingomyelin in brain areas and liver (wt and ASMko mice [3]; single dose of 1 mg/kg): No statistically significant reduction
sphingomyelin levels reduced in cerebellum (wt and ASMko mice [3]; [6]): 17%
sphingomyelin levels reduced in cortex (wt and ASMko mice [3]; [6]): 23%
sphingomyelin levels reduced in hippocampus (wt and ASMko mice [3]; [6]): 13%
sphingomyelin levels reduced in liver (wt and ASMko mice [3]; [6]): 34%
H&E staining of liver (foam cell pattern) (wt and ASMko mice [4]; ASMko mice): did not significantly alter this pattern
H&E staining of hippocampus, cerebellum and cortex (wt and ASMko mice [4]; wt and ASMko mice): did not cause significant changes in H&E staining
microglia numbers in hippocampus, cerebellum and cortex (microglia; single dose 0.1 mg/kg): did not significantly alter microglia numbers
microglia numbers in hippocampus, cerebellum and cortex (microglia; single dose 1 mg/kg): remarkably reduced microglia numbers to levels similar to wt mice
microglia numbers in hippocampus, cerebellum and cortex (microglia; single dose 5 mg/kg): remarkably reduced microglia numbers to levels similar to wt mice
liver macrophage amoeboid morphology / cell area (macrophages; single dose 0.1 mg/kg): did not significantly alter macrophage amoeboid morphology
liver macrophage cell area (macrophages; single dose 1 mg/kg): remarkably reduced macrophage cell area to levels similar to wt mice
liver macrophage cell area (macrophages; single dose 5 mg/kg): remarkably reduced macrophage cell area to levels similar to wt mice
